From patent publication US7064116B2, “GABAA modulating neurosteroids” (priority 2000, dated 2006)

Experiments:
[1] = target: benzodiazepine site of the GABAA/BZ/chloride channel complex (rat brain GBR enriched synaptosomal preparation); test: Enhancement of [3H]-Flunitrazepam binding to the benzodiazepine site in rat brain synaptosomal membranes; details: for EC50: enhancement of 1 nM [3H]-Flunitrazepam binding, 40 μg rat brain synaptosomal membrane, 30° C., 30 min; for Maximum stimulation: maximum stimulation of 1 nM [3H]-Flunitrazepam specific binding, normalized to control without test compound

Structure (SMILES)	melting point	EC50 [1]	Maximum stimulation [1]
C[C@]12CC[C@@H](N=[N+]=[N-])C[C@@H]1CC[C@@H]1[C@@H]2CC[C@]2(C)[C@@H](C(=O)CBr)CC[C@@H]12	108 to 110 °C		
C=C=CC(O)[C@H]1CC[C@H]2[C@@H]3CC[C@H]4CC(O)CC[C@]4(C)[C@H]3CC[C@]12C (mixture of isomers) [17β-(1-hydroxy-2,3-butadienyl)-5α-androstane-3ol (mixture of C-20 epimers), 17β-(1-hydroxy-2,3-butadienyl)-5α-androstane-3-ol]	174 to 177 °C	0.0059 µM	45.8%
C#CC(OC)[C@H]1CC[C@H]2[C@@H]3CC[C@H]4C[C@H](O)CC[C@]4(C)[C@H]3CC[C@]12C (mixture of isomers) [17β-(1-methoxy-2-propynyl)-5α-androstan-3α-ol (mixture of C-20 epimers), 17β-(1-methoxy-2-propynyl)-5α-androstan-3α-ol]	161 to 163 °C	0.00448 µM	18.1%
C#CC(O)[C@H]1CC[C@H]2[C@@H]3CC[C@H]4CC(O)CC[C@]4(C)[C@H]3CC[C@]12C (single isomer, unassigned) [17β-(1-hydroxy-2-propynyl)-5α-androstan-3-ol (less polar C-20 epimer), 17β-(1-hydroxy-2-propynyl)-5α-androstan-3-ol]		inactive	
COc1ccc(C#CC(O)[C@H]2CC[C@H]3[C@@H]4CC[C@H]5C[C@H](O)CC[C@]5(C)[C@H]4CC[C@]23C)cc1 (single isomer, unassigned) [17β-[1-hydroxy-3-(4-methoxyphenyl)-2-propynyl]-5α-androstan-3α-ol]		0.0363 µM	23.3%
C[C@]12CC[C@@H](N=[N+]=[N-])C[C@@H]1CC[C@@H]1[C@@H]2CC[C@]2(C)[C@@H](C(=O)CN=[N+]=[N-])CC[C@@H]12 [3α,21-di-azido-5α-pregnan-20-one]	133 to 135 °C	0.314 µM	16.4%
CC(=O)[C@H]1CC[C@H]2[C@@H]3CC[C@H]4C[C@H](N=[N+]=[N-])CC[C@]4(C)[C@H]3CC[C@]12C [3α-azido-5α-pregnan-20-one, 3α-Azido-5α-pregnan-20-one]	159 to 162 °C	inactive	
CC(=O)[C@H]1CC[C@H]2[C@@H]3CC[C@H]4C[C@H](O)CC[C@]4(C)[C@H]3CC[C@]12C [3α-hydroxy-5α-pregnan-20-one, reference compound]		0.212 µM	36%
C[C@]12CC[C@@H](O)C[C@@H]1CC[C@@H]1[C@@H]2CC[C@]2(C)[C@@H](C#CBr)CC[C@@H]12 [17β-(2-bromoethynyl)-5α-androstane-3α-ol]	165 to 167 °C	0.326 µM	72.7%
COC(=O)C#C[C@H]1CC[C@H]2[C@@H]3CC[C@H]4C[C@H](O)CC[C@]4(C)[C@H]3CC[C@]12C [17β-(2-methoxycarbonylethynyl)-5α-androstane-3α-ol]	135 to 137 °C	0.515 µM	55.6%
CC(O)C#C[C@H]1CC[C@H]2[C@@H]3CC[C@H]4C[C@H](O)CC[C@]4(C)[C@H]3CC[C@]12C (stereo partly drawn) [17β-(3-hydroxy-1-butynyl)-5α-androstane-3α-ol]	169 to 171 °C	inactive	
CC(=O)C#C[C@H]1CC[C@H]2[C@@H]3CC[C@H]4C[C@H](O)CC[C@]4(C)[C@H]3CC[C@]12C [17β-(3-oxo-1-butynyl)-5α-androstan-3α-ol]	148 to 150 °C	inactive	
Cc1ccc(C#C[C@H]2CC[C@H]3[C@@H]4CC[C@H]5C[C@H](O)CC[C@]5(C)[C@H]4CC[C@]23C)cc1 [17β-[2-(4-tolyl)ethynyl]-5α-androstane-3α-ol]	178 to 180 °C	2.38 µM	52.6%
